How the values were obtained:
PLA2G16 = target: T1, PLA2G16 (Homo sapiens, UniProt P53816); test: Enzyme activity assay for PLA2G16 (Red/Green BODIPY PC-A2 fluorescence); assay type: biochemical; conditions: His-tagged PLA2G16, 4 min pre-incubation, compound 2 nM to 50 μM; first symbol in parentheses
T1 construct: Hexa-His (N); made in house; host or cells: E. coli BL21(DE3)
T1 sequence (P53816 1-162): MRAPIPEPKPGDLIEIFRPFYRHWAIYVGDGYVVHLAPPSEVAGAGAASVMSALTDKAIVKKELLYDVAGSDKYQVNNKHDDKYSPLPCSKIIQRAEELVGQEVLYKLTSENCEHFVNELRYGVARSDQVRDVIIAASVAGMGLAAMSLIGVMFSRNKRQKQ
From the text: Purification and Enzyme Activity Assay for PLA2G16
A cDNA for PLA2G16 (NM_007069) was custom-synthesized by Genscript (Piscataway, USA) and inserted into a pET-based bacterial expression vector [Moffatt, B. A. and Studier, F. W. (1986) J. Mol. Biol. 189, 113-130; Rosenberg, A. H., Lade, B. N., Chui, D., Lin, S., Dunn, J. J., and Studier, F. W. (1987) Gene 56, 125-135], enabling the expression of N-terminally Hexa-His-tagged PLA2G16. E. coli BL21(DE3) (Agilent) were transformed with pET-His-PLA2G16 according to the manufacturer's instructions and plated on Carbenicillin-containing agar plates (final concentration: 100 μg/mL). A single clone was inoculated in 100 mL LB medium supplemented with 100 μg/mL Carbenicillin and the inoculated culture was grown at 37° C. overnight in a rotary shaker. On the next day, the bacterial culture was diluted in LB medium supplemented with 100 μg/mL Carbenicillin (30 mL overnight culture in 800 mL total culture volume). Bacteria were grown at 37° C. until the OD600 reached 0.6. Gene expression was induced by addition of 1 mM isopropyl-β-D-thiogalactopyranosid (IPTG) for 2 h at 18° C. Subsequently, bacteria were harvested by centrifugation (15 min; 10,000×g; 4° C.) and frozen at −80° C. The bacterial pellet was resuspended in Buffer A (50 mM Tris/HCl pH 7.5, 500 mM NaCl, 5% glycerol, 5 mM β-Mercaptoethanol and 1 mM PMSF) and lysed by addition of 1 mg/mL lysozyme (Sigma Aldrich) and 100 μg/mL DNasel-(Roche). The sample was incubated at 30° C. for 30 min to allow lysis to occur. Then, the lysate was cleared by centrifugation (15,000×g, 15 min, 4° C.) and incubated with 1.5 mL Ni-NTA agarose suspension (Qiagen) for 60 min at 4° C. The Ni-NTA agarose was washed with 10 mL Buffer A. Bound protein was eluted by applying a manual gradient of Buffer A supplemented with increasing concentrations of imidazole (Sigma Aldrich; 25/50/75/100/250 mM). Purified fractions were analyzed by SDS-PAGE followed by Coomassie staining to assess the purity.
Activity of the protein was assessed as follows:
Red/Green BODIPY® PC-A2 (Invitrogen, 1 mM in DMSO) was mixed with equal volumes of 1,2-Dioleoyl-sn-glycero-3-phosphocholine (DOPC; Sigma Aldrich, 10 mM in Ethanol) and 1,2-Dioleoyl-sn-glycero-3-phospho-rac-(1-glycerol) (DOPG; Sigma Aldrich, 10 mM in Ethanol) and 0.5 volumes of Cholesterol (CHOL; Sigma Aldrich, 10 mM in Ethanol) and vortexed for 5 s. The mixture (Red/Green BODIPY® PC-A2/DOPC/DOPG/CHOL) was diluted 1:91.4 in activity assay buffer (50 mM Tris/HCl pH 8.5, 100 mM NaCl) using a small-orifice pipette tip under constant vortexing. In the following, this preparation will be referred to as the “substrate solution”.
In order to evaluate their inhibitory potential, compounds were dissolved at 10 mM concentration in DMSO and directly spotted into assay plates (Corning, Cat. No. 3576) using acoustic liquid transfer (Labcyte Echo 525). Each compound was spotted at increasing concentrations, ranging from 2 nM to 50 μM (concentration in the final assay volume). 50 μl of PLA2G16 enzyme solution (diluted in activity buffer, supplemented with 5 mM L-Glutathione; Sigma Aldrich) was pre-incubated with compounds for 4 min., followed by addition of 50 μl of substrate solution. Fluorescence was recorded immediately after substrate addition for a total time of 10 min. using a SpectraMax M5 multimode reader (Excitation wavelength: 480 nm, emission wavelength: 530 nm). The relative increase of fluorescence over time is referred to as the enzyme activity. Half-maximal inhibitory concentrations (IC50) were derived by non-linear regression analysis using the drc package in R (R Development. Core Team, 2005).

[1] = test system: picornaviruses (CVB1, HRV-A2, HRV-A23, EV-68); test: Anti-picornavirus cytopathic effect (CPE) reduction assay on HeLa H1 cells; assay type: cell-based; conditions: 48 h, category from averaging EC50 values of four picornaviruses (CVB1, HRV-A2, HRV-A23, EV68), second symbol in parentheses
Procedure: Anti-Picornavirus Assay in Mammalian Cell Culture
The antiviral activity of selected compounds was tested using a cytopathic effect (CPE) reduction assay on HeLa H1 cells (ATCC CRL-1958). Briefly, cells were seeded in 96-well dishes (2×10^4 cells/well) in DMEM medium (Life technologies) supplemented with 10% FBS and PenStrep solution (100 U/mL Penicillin and 100 μg/mL streptomycin) and incubated at 37° C., 5% CO2 overnight. The next day, cells were pre-treated with serial dilutions of the compound in DMEM medium supplemented with 2% FBS and PenStrep for 2 h at 37° C., 5% CO2. Next, cells were infected with virus (CVB1, HRV-A2, HRV-A23, EV-68) at an multiplicity of infection (MOI) which results in a complete virus-induced CPE within 2 days in control wells (infected and vehicle-treated). After 48 h, supernatants were aspirated and 50 μl/well of CellTiterBlue reagent (Promega) diluted 1:5 in DMEM+2% FBS, was added to the cells. Plates were returned to the incubator and allowed to develop for 1.5 h. After that, plates were equilibrated to RT and subsequently, fluorescence was recorded (Excitation wavelength: 560 nm; emission wavelength: 590 nm) using a SpectraMax M5 multimode plate reader. Viability of cells was calculated according to the formula: V=(RFUCpd−RFUVeh/(RFUM−RFUVeh), where RFUCpd refers to infected and compound-treated cells, RFUVeh to infected and vehicle-treated cells and RFUM to uninfected and vehicle treated cells. Half-maximal effective concentrations (EC50) were calculated by non-linear regression analysis using the drc package in R (R Development. Core Team, 2005). EC50 categories as presented in Table 2 were calculated by averaging the EC50 values from four picornaviruses (CVB1, HRV-A2, HRV-A23, EV68).

Row | Compound | IC50 (PLA2G16) [nM] | EC50 [1] [nM]
1 | O=C(NCC(F)(F)F)C(=O)[C@H]1CNC(=O)[C@@H]1c1ccccc1 (racemic) [FP-22, Rac-2-oxo-2-[(3R,4S)-5-oxo-4-phenylpyrrolidin-3-yl]-N-(2,2,2-trifluoroethyl)acetamide] | < 1000 | 1000 to 10000
2 | O=C(NCC1CC(F)(F)C1)C(=O)[C@H]1CNC(=O)[C@@H]1c1ccccc1 (racemic) [FP-23, Rac-N-[(3,3-difluorocyclobutyl)methyl]-2-oxo-2-[(3R,4S)-5-oxo-4-phenylpyrrolidin-3-yl]acetamide] | < 1000 | < 1000
3 | O=C(NCCC1CC1)C(=O)[C@H]1CNC(=O)[C@@H]1c1ccccc1 (racemic) [FP-24, Rac-N-(2-cyclopropylethyl)-2-oxo-2-[(3R,4S)-5-oxo-4-phenylpyrrolidin-3-yl]acetamide] | < 1000 | < 1000
4 | O=C(NCC(F)(F)C(F)(F)F)C(=O)[C@H]1CNC(=O)[C@@H]1c1ccccc1 (racemic) [FP-25, Rac-2-oxo-2-[(3R,4S)-5-oxo-4-phenylpyrrolidin-3-yl]-N-(2,2,3,3,3-pentafluoro-propyl)acetamide] | < 1000 | 1000 to 10000
5 | CC(F)(F)CNC(=O)C(=O)[C@H]1CNC(=O)[C@@H]1c1ccc(F)cc1 (racemic) [FP-26, Rac-N-(2,2-difluoropropyl)-2-[(3R,4S)-4-(4-fluorophenyl)-5-oxopyrrolidin-3-yl]-2-oxoacetamide] | < 1000 | 1000 to 10000
6 | CC(C)NC(=O)C(=O)[C@H]1CNC(=O)[C@@H]1c1ccc(F)cc1 (racemic) [FP-27, Rac-2-[(3R,4S)-4-(4-fluorophenyl)-5-oxopyrrolidin-3-yl]-2-oxo-N-(propan-2-yl)acetamide] | < 1000 | 1000 to 10000
7 | O=C(NCC1CC1)C(=O)[C@H]1CNC(=O)[C@@H]1c1ccc(F)cc1 (racemic) [FP-28, Rac-N-(cyclopropylmethyl)-2-[(3R,4S)-4-(4-fluorophenyl)-5-oxopyrrolidin-3-yl]-2-oxoacetamide] | < 1000 | < 1000
8 | O=C(NC1CC1)C(=O)[C@H]1CNC(=O)[C@@H]1Cc1ccc(F)cc1 (racemic) [FP-29, Rac-N-cyclopropyl-2-[(3R,4R)-4-[(4-fluorophenyl)methyl]-5-oxopyrrolidin-3-yl]-2-oxoacetamide] | < 1000 | < 1000
9 | CCNC(=O)C(=O)[C@H]1CNC(=O)[C@@H]1Cc1ccc(F)cc1 (racemic) [FP-30, Rac-N-ethyl-2-[(3R,4R)-4-[(4-fluorophenyl)methyl]-5-oxopyrrolidin-3-yl]-2-oxoacetamide] | < 1000 | < 1000
10 | O=C(NCC1CC1)C(=O)[C@H]1CNC(=O)[C@@H]1Cc1ccc(F)cc1 (racemic) [FP-31, Rac-N-(cyclopropylmethyl)-2-[(3R,4R)-4-[(4-fluorophenyl)methyl]-5-oxopyrrolidin-3-yl]-2-oxoacetamide] | < 1000 | < 1000
11 | O=C(NC1CC1)C(=O)[C@H]1CN(CC2CCOCC2)C(=O)[C@@H]1Cc1ccccc1 (racemic) [FP-32, Rac-2-[(3R,4R)-4-benzyl-1-[(oxan-4-yl)methyl]-5-oxopyrrolidin-3-yl]-N-cyclopropyl-2-oxoacetamide] | < 1000 | < 1000
12 | CCNC(=O)C(=O)[C@H]1CN(CC2CCOCC2)C(=O)[C@@H]1Cc1ccccc1 (racemic) [FP-33, Rac-2-[(3R,4R)-4-benzyl-1-[(oxan-4-yl)methyl]-5-oxopyrrolidin-3-yl]-N-ethyl-2-oxoacetamide] | < 1000 | < 1000
13 | Cc1noc(CN2C[C@H](C(=O)C(=O)NC3CC3)[C@@H](Cc3ccccc3)C2=O)n1 (racemic) [FP-34, Rac-2-[(3R,4R)-4-benzyl-1-[(3-methyl-1,2,4-oxadiazol-5-yl)methyl]-5-oxopyrrolidin-3-yl]-N-cyclopropyl-2-oxoacetamide] | < 1000 | 1000 to 10000
14 | O=C(NC1CC1)C(=O)[C@H]1CN(Cc2ncccn2)C(=O)[C@@H]1Cc1ccccc1 (racemic) [FP-35, Rac-2-[(3R,4R)-4-benzyl-5-oxo-1-[(pyrimidin-2-yl)methyl]pyrrolidin-3-yl]-N-cyclopropyl-2-oxoacetamide] | < 1000 | 1000 to 10000
15 | CCNC(=O)C(=O)[C@H]1CN(Cc2ncccn2)C(=O)[C@@H]1Cc1ccccc1 (racemic) [FP-36, Rac-2-[(3R,4R)-4-benzyl-5-oxo-1-[(pyrimidin-2-yl)methyl]pyrrolidin-3-yl]-N-ethyl-2-oxoacetamide] | < 1000 | 1000 to 10000
16 | O=C(NC1CC1)C(=O)[C@H]1CN(Cc2ccncn2)C(=O)[C@@H]1Cc1ccccc1 (racemic) [FP-37, Rac-2-[(3R,4R)-4-benzyl-5-oxo-1-[(pyrimidin-4-yl)methyl]pyrrolidin-3-yl]-N-cyclopropyl-2-oxoacetamide] | < 1000 | 1000 to 10000
17 | CN1C[C@H](C(=O)C(=O)NC2CC2)[C@@H](C2CCCCC2)C1=O (racemic) [FP-38, Rac-2-[(3R,4R)-4-cyclohexyl-1-methyl-5-oxopyrrolidin-3-yl]-N-cyclopropyl-2-oxoacetamide] | < 1000 | 1000 to 10000
18 | COCCN1C[C@H](C(=O)C(=O)NC2CC2)[C@@H](Cc2ccccc2)C1=O (racemic) [FP-39, Rac-2-[(3R,4R)-4-benzyl-1-(2-methoxyethyl)-5-oxopyrrolidin-3-yl]-N-cyclopropyl-2-oxoacetamide] | < 1000 | 1000 to 10000
19 | CC(C)CNC(=O)C(=O)[C@H]1CN(CC(N)=O)C(=O)[C@@H]1Cc1ccccc1 (racemic) [FP-40, Rac-2-[(3R,4R)-4-benzyl-1-(carbamoylmethyl)-5-oxopyrrolidin-3-yl]-N-(2-methylpropyl)-2-oxoacetamide] | < 1000 | < 1000
